Source: ChEMBL document CHEMBL1201862, “PubChem BioAssay data set” (2004)
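Assay format: 96-well plates, 48-hour exposure. GI50 = concentration required for 50% inhibition of growth.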 Active and inactive are the calls of the source. Rule as the data show it: active = GI50 up to about 1.1 µM and inactive = higher.

Columns and labels:
Assay in all cases: NCI-60 cell line screen, 48 h
OVCAR-8 = test system: OVCAR-8
SW-620 = test system: SW-620
786-0 = test system: 786-0
OVCAR-4 = test system: OVCAR-4
HL-60 = test system: HL-60
HOP-92 = test system: HOP-92
RXF 393 = test system: RXF 393
SNB-75 = test system: SNB-75
RPMI-8226 = test system: RPMI-8226
HCT-116 = test system: HCT-116
NCI-H23 = test system: NCI-H23
BT-549 = test system: BT-549
A549 = test system: A549
DU-145 = test system: DU-145
TK-10 = test system: TK-10
CCRF-CEM = test system: CCRF-CEM
M14 = test system: M14
SF-295 = test system: SF-295
SNB-19 = test system: SNB-19
MOLT-4 = test system: MOLT-4
CAKI-1 = test system: CAKI-1
SK-OV-3 = test system: SK-OV-3
HOP-62 = test system: HOP-62
MCF7 = test system: MCF7
SK-MEL-2 = test system: SK-MEL-2
MDA-MB-435 = test system: MDA-MB-435
UO-31 = test system: UO-31
NCI-H226 = test system: NCI-H226
Hs-578T = test system: Hs-578T
SF-268 = test system: SF-268
U-251 = test system: U-251
MDA-MB-231 = test system: MDA-MB-231
SN12C = test system: SN12C
KM12 = test system: KM12
OVCAR-3 = test system: OVCAR-3
LOX IMVI = test system: LOX IMVI
NCI/ADR-RES = test system: NCI/ADR-RES
OVCAR-5 = test system: OVCAR-5
UACC-257 = test system: UACC-257
Malme-3M = test system: Malme-3M
K562 = test system: K562
PC-3 = test system: PC-3
SF-539 = test system: SF-539
SK-MEL-28 = test system: SK-MEL-28
IGROV-1 = test system: IGROV-1
HT-29 = test system: HT-29
EKVX = test system: EKVX
HCT-15 = test system: HCT-15
UACC-62 = test system: UACC-62
COLO 205 = test system: COLO 205
SK-MEL-5 = test system: SK-MEL-5
NCI-H522 = test system: NCI-H522
SR = test system: SR
A498 = test system: A498
HCC 2998 = test system: HCC 2998
NCI-H460 = test system: NCI-H460
ACHN = test system: ACHN
MDA-N = test system: MDA-N

SMILES: NS(=O)(=O)c1nnc(NC(=S)NC(=O)Nc2ccc(Cl)c(Cl)c2)s1
- GI50 (OVCAR-8): 22.1 µM (inactive)
- GI50 (SW-620): 22.5 µM (inactive)
- GI50 (786-0): 28.3 µM (inactive)
- GI50 (OVCAR-4): 19.5 µM (inactive)
- GI50 (HL-60): 26.9 µM (inactive)
- GI50 (HOP-92): 13.5 µM (inactive)
- GI50 (RXF 393): 19.1 µM (inactive)
- GI50 (SNB-75): 17.4 µM (inactive)
- GI50 (RPMI-8226): 25.8 µM (inactive)
- GI50 (HCT-116): 16.9 µM (inactive)
- GI50 (NCI-H23): 18.1 µM (inactive)
- GI50 (BT-549): 21.3 µM (inactive)
- GI50 (A549): 32 µM (inactive)
- GI50 (DU-145): 20.8 µM (inactive)
- GI50 (TK-10): 34.9 µM (inactive)
- GI50 (CCRF-CEM): 28.1 µM (inactive)
- GI50 (M14): 17.9 µM (inactive)
- GI50 (SF-295): 21.2 µM (inactive)
- GI50 (SNB-19): 28.3 µM (inactive)
- GI50 (MOLT-4): 29 µM (inactive)
- GI50 (CAKI-1): 23.4 µM (inactive)
- GI50 (SK-OV-3): 20.7 µM (inactive)
- GI50 (HOP-62): 22.8 µM (inactive)
- GI50 (MCF7): 38 µM (inactive)
- GI50 (SK-MEL-2): 31.8 µM (inactive)
- GI50 (MDA-MB-435): 19.4 µM (inactive)
- GI50 (UO-31): 20.6 µM (inactive)
- GI50 (NCI-H226): 23.9 µM (inactive)
- GI50 (Hs-578T): 24.3 µM (inactive)
- GI50 (SF-268): 27.5 µM (inactive)
- GI50 (U-251): 36.3 µM (inactive)
- GI50 (MDA-MB-231): 30.4 µM (inactive)
- GI50 (SN12C): 26.7 µM (inactive)
- GI50 (KM12): 18.7 µM (inactive)
- GI50 (OVCAR-3): 20.8 µM (inactive)
- GI50 (LOX IMVI): 17.1 µM (inactive)
- GI50 (NCI/ADR-RES): 25.4 µM (inactive)
- GI50 (OVCAR-5): 25.1 µM (inactive)
- GI50 (UACC-257): 23.1 µM (inactive)
- GI50 (Malme-3M): 22.6 µM (inactive)
- GI50 (K562): 30.4 µM (inactive)
- GI50 (PC-3): 27.3 µM (inactive)
- GI50 (SF-539): 2.39 µM (inactive)
- GI50 (SK-MEL-28): 37.1 µM (inactive)
- GI50 (IGROV-1): 17.2 µM (inactive)
- GI50 (HT-29): 25.5 µM (inactive)
- GI50 (EKVX): 26.3 µM (inactive)
- GI50 (HCT-15): 19.7 µM
- GI50 (UACC-62): 17.5 µM (inactive)
- GI50 (COLO 205): 19.5 µM (inactive)
- GI50 (SK-MEL-5): 21.2 µM (inactive)
- GI50 (NCI-H522): 14.8 µM (inactive)

SMILES: C=CCN1C(=O)/C(=C/c2ccco2)N=C1SC1OC(COC(C)=O)C(OC(C)=O)C(OC(C)=O)C1OC(C)=O (stereo not given)
- GI50 (OVCAR-8): > 100 µM (inactive)
- GI50 (SW-620): > 100 µM (inactive)
- GI50 (SR): 38.9 µM (inactive)
- GI50 (OVCAR-4): > 100 µM (inactive)
- GI50 (HL-60): 13.2 µM (inactive)
- GI50 (HOP-92): 72.9 µM (inactive)
- GI50 (RXF 393): 44 µM (inactive)
- GI50 (SNB-75): > 100 µM (inactive)
- GI50 (RPMI-8226): 31.6 µM (inactive)
- GI50 (NCI-H23): > 100 µM (inactive)
- GI50 (BT-549): > 100 µM (inactive)
- GI50 (DU-145): 80.2 µM (inactive)
- GI50 (TK-10): > 100 µM (inactive)
- GI50 (SF-295): > 100 µM (inactive)
- GI50 (MOLT-4): 32.7 µM (inactive)
- GI50 (CAKI-1): > 100 µM (inactive)
- GI50 (SK-OV-3): > 100 µM (inactive)
- GI50 (A498): > 100 µM (inactive)
- GI50 (HOP-62): > 100 µM (inactive)
- GI50 (MCF7): 62.5 µM (inactive)
- GI50 (SK-MEL-2): > 100 µM (inactive)
- GI50 (MDA-MB-435): > 100 µM (inactive)
- GI50 (NCI-H226): 78.3 µM (inactive)
- GI50 (U-251): > 100 µM (inactive)
- GI50 (MDA-MB-231): > 100 µM (inactive)
- GI50 (KM12): > 100 µM (inactive)
- GI50 (OVCAR-3): > 100 µM (inactive)
- GI50 (LOX IMVI): > 100 µM (inactive)
- GI50 (NCI/ADR-RES): > 100 µM (inactive)
- GI50 (OVCAR-5): > 100 µM (inactive)
- GI50 (UACC-257): > 100 µM (inactive)
- GI50 (Malme-3M): 89.5 µM (inactive)
- GI50 (K562): 39.8 µM (inactive)
- GI50 (PC-3): > 100 µM (inactive)
- GI50 (SF-539): > 100 µM (inactive)
- GI50 (SK-MEL-28): > 100 µM (inactive)
- GI50 (HCC 2998): > 100 µM (inactive)
- GI50 (IGROV-1): > 100 µM (inactive)
- GI50 (NCI-H460): > 100 µM (inactive)
- GI50 (EKVX): > 100 µM (inactive)
- GI50 (HCT-15): 88.1 µM
- GI50 (UACC-62): 83.9 µM (inactive)
- GI50 (ACHN): > 100 µM (inactive)
- GI50 (COLO 205): > 100 µM (inactive)
- GI50 (SK-MEL-5): > 100 µM (inactive)
- GI50 (NCI-H522): 15.9 µM (inactive)

SMILES: CC(C(=O)O)c1ccc(-c2ccccc2)c(F)c1 (stereo not given) [TARENFLURBIL]
- GI50 (HL-60): > 100 µM (inactive)
- GI50 (SNB-75): > 100 µM (inactive)
- GI50 (BT-549): > 100 µM (inactive)
- GI50 (A549): > 100 µM (inactive)
- GI50 (MDA-N): > 100 µM (inactive)
- GI50 (HOP-62): > 100 µM (inactive)
- GI50 (MCF7): > 100 µM (inactive)
- GI50 (SK-MEL-2): > 100 µM (inactive)
- GI50 (MDA-MB-435): > 100 µM (inactive)
- GI50 (UO-31): > 100 µM (inactive)
- GI50 (NCI-H226): > 100 µM (inactive)
- GI50 (Hs-578T): > 100 µM (inactive)
- GI50 (SF-268): > 100 µM (inactive)
- GI50 (SN12C): > 100 µM (inactive)
- GI50 (Malme-3M): > 100 µM (inactive)
- GI50 (SF-539): > 100 µM (inactive)
- GI50 (SK-MEL-28): > 100 µM (inactive)
- GI50 (EKVX): > 100 µM (inactive)
- GI50 (HCT-15): > 100 µM
- GI50 (NCI-H522): > 100 µM (inactive)

SMILES: CCn1nc(C)c2c1C(=O)NCC(=O)N2
- GI50 (OVCAR-8): > 100 µM (inactive)
- GI50 (SW-620): > 100 µM (inactive)
- GI50 (OVCAR-4): > 100 µM (inactive)
- GI50 (HOP-92): > 100 µM (inactive)
- GI50 (RXF 393): > 100 µM (inactive)
- GI50 (SNB-75): > 100 µM (inactive)
- GI50 (HCT-116): > 100 µM (inactive)
- GI50 (NCI-H23): > 100 µM (inactive)
- GI50 (BT-549): > 100 µM (inactive)
- GI50 (A549): > 100 µM (inactive)
- GI50 (DU-145): > 100 µM (inactive)
- GI50 (MDA-N): > 100 µM (inactive)
- GI50 (TK-10): > 100 µM (inactive)
- GI50 (M14): > 100 µM (inactive)
- GI50 (SF-295): > 100 µM (inactive)
- GI50 (SNB-19): > 100 µM (inactive)
- GI50 (CAKI-1): > 100 µM (inactive)
- GI50 (SK-OV-3): > 100 µM (inactive)
- GI50 (A498): > 100 µM (inactive)
- GI50 (MDA-MB-435): > 100 µM (inactive)
- GI50 (UO-31): > 100 µM (inactive)
- GI50 (Hs-578T): > 100 µM (inactive)
- GI50 (SF-268): > 100 µM (inactive)
- GI50 (U-251): > 100 µM (inactive)
- GI50 (SN12C): > 100 µM (inactive)
- GI50 (KM12): > 100 µM (inactive)
- GI50 (OVCAR-3): > 100 µM (inactive)
- GI50 (OVCAR-5): > 100 µM (inactive)
- GI50 (UACC-257): > 100 µM (inactive)
- GI50 (PC-3): > 100 µM (inactive)
- GI50 (SF-539): > 100 µM (inactive)
- GI50 (SK-MEL-28): > 100 µM (inactive)
- GI50 (IGROV-1): > 100 µM (inactive)
- GI50 (NCI-H460): > 100 µM (inactive)
- GI50 (HT-29): > 100 µM (inactive)
- GI50 (EKVX): > 100 µM (inactive)
- GI50 (HCT-15): > 100 µM
- GI50 (UACC-62): > 100 µM (inactive)
- GI50 (ACHN): > 100 µM (inactive)
- GI50 (COLO 205): > 100 µM (inactive)
- GI50 (SK-MEL-5): > 100 µM (inactive)
- GI50 (NCI-H522): > 100 µM (inactive)
